In the experiment the target is T1, Human Renin (Homo sapiens, UniProt P00797).
T1 construct: purchased National Institute for Biological Standards, London
T1 sequence (P00797 67-406): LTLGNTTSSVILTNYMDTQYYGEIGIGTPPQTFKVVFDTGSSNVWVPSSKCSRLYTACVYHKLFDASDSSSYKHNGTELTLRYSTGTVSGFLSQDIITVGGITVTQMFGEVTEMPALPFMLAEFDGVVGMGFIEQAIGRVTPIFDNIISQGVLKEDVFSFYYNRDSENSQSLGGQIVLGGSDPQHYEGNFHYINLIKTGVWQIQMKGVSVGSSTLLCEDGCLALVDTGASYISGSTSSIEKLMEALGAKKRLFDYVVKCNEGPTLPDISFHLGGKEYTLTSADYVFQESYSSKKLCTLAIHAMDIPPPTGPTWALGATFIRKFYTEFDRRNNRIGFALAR
Put plainly: Human renin inhibition in vitro (angiotensin I produced, determined by radioimmunoassay). It counts as biochemical. The note with it: human plasma, pH 7.4, 37° C., two hours. As to the method:
Compounds of Formula I were evaluated as inhibitors of human renin in an in vitro assay, as follows: This human renin inhibition test has been previously described in detail [Papaioannou et al., Clinical and Experimental Hypertension, A7(9), 1243-1257 (1985)]. Human renin was obtained from the National Institute for Biological Standards, London. An incubation mixture was prepared containing the following components: in a total volume of 0.25 mL: 100 mM Tris-acetate buffer at pH 7.4, 25×10^-6 Goldblatt units of renin, 0.05 mL of plasma from human volunteers taking oral contraceptives, 6.0 mM Na-EDTA, 2.4 mM phenylmethyl sulfonyl fluoride, 1.5 mM 8-hydroxyquinoline, 0.4 mg/mL bovine serum albumin (BSA), and 0.024 mg/mL neomycin sulfate. This mixture was incubated for two hours at 37° C. in the presence or absence of renin inhibitors. The produced angiotensin I was determined by radioimmunoassay (New England Nuclear kit). Test compounds to be assayed were dissolved in DMSO and diluted with 100 mM Tris-acetate buffer at pH 7.4 containing 0.5% BSA to the appropriate concentration. The final concentration of organic solvent in the reaction mixture was less than 1%. Control incubations at 37° C. were used to correct for effects of organic solvent on renin activity.

Molecules are shown by their SMILES.

Consider one compound from patent US5416119A, “Alkylaminoalkyl-terminated sulfide/sulfonyl-containing cycloalkyl-alanine amino-diol compounds for treatment of hypertension” (G. D. Searle & Co., priority 1993, dated 1995).

The compound `CC(C)C[C@H](O)[C@H](O)[C@H](CC1CCCCC1)NC(=O)C(CC1CC1)NC(=O)C(Cc1ccccc1)CS(=O)(=O)CCN(C)C` (stereo partly drawn) [Example 1, N-[2-[[1S,1R*-(cyclohexylmethyl)-2S*,3R* -dihydroxy-5-methylhexyl]amino]-1R*-(cyclopropylmethyl)-2-oxoethyl]-α-[[[2-(dimethylamino)ethyl]sulfonyl]methyl]benzenepropanamide] had an IC50 of 1.3 nM.
